This data set in a line: Rat pharmacokinetic studies of prodrug and released riluzole (IV or oral). The note with it: rat, plasma, fasted male Sprague Dawley rats; for clearance: read-out: Compound of the disclosure Cl (converted); for Vd: read-out: Compound of the disclosure Vss; for half-life: read-out: Compound of the disclosure t1/2 (converted). The data set is classed as in vivo, Sprague-Dawley rats. On the procedure: Rat Pharmacokinetic Studies of the Compounds of the Disclosure:
Blood samples were collected at pre-determined time points including a 0 h time point and usually between 7 and 8 additional time points not exceeding a 24 h period.
Plasma samples were extracted and analyzed using the methods described in Plasma Sample Extraction and Analysis. All data are expressed as ng/mL of the free base. Samples that were below the limit of quantification (0.5 ng/mL) were not used in the calculation of averages.
Pharmacokinetic parameters were calculated from the time course of the plasmaconcentrations. Pharmacokinetic parameters were determined with Phoenix Winnonlin (v6.3) software using a non-compartmental model. The maximum plasma concentration (Cmax) and time to the maximum plasma concentration (Tmax) of the compound of the disclosure were observed from the data. The area under the concentration-time curve (AUC) of the compound of the disclosure was calculated using the trapezoidal formula with calculation to the last quantifiable data point, and to infinity if applicable. Plasma half-life (t½) was calculated from 0.693/slope of the terminal elimination phase. Mean residence time, MRT, was calculated by dividing the area under the moment curve (AUMC) by the AUC. Any samples below the limit of quantitation (0.5 ng/mL) were treated as zero for pharmacokinetic data analysis.
Plasma Sample Extraction and Analysis:
Analytical stock solutions (1.00 mg/mL of the free compound of the disclosure) were prepared in DMSO. Standards were prepared in diluted matrix containing 1 part 10% formic acid and 9 parts Sprague-Dawley rat plasma containing sodium heparin as the anticoagulant (pre-diluted with 1 part of 0.5M citric acid and 9 parts whole blood). Working solutions were prepared in 50:50 acetonitrile:water. Working solutions were then added to plasma to make calibration standards to final concentrations of 1000, 500, 100, 50, 10, 5, 1, and 0.5 ng/mL. Standards contained both the test article and riluzole. Standards were treated identically to the study samples.
Plasma samples were extracted via acetonitrile precipitation on a Tomtec Quadra 96-Model 320 liquid handling system in a 96-well plate format.

Where [1] appears, read: IV, prodrug dose 2.8 mg/Kg, read-out: Compound of the disclosure AUClast.

These results are taken from patent US10639298B2 (Biohaven Pharmaceutical Holding Company Ltd., priority 2015, dated 2020).

Like-named read-outs stand apart in the source and are kept apart here.

On to `CNCC(=O)NC(C)(C)C(=O)Nc1nc2ccc(OC(F)(F)F)cc2s1` [Example 111, 2-methyl-2-(2-(methylamino)acetamido)-N-(6-(trifluoromethoxy)benzo[d]thiazol-2-yl)propanamide], for which the AUC(0-t) under setting [1] amounted to 4650 ng·h/mL. Under “IV, prodrug dose 2.8 mg/Kg”, the clearance is 5.75 mL/min/kg, the Vd was 3.19 L/kg and the half-life was 6.51 h.

In the case of `CC(C)(CN)C(=O)N1CCC[C@H]1C(=O)Nc1nc2ccc(OC(F)(F)F)cc2s1` [Example 59, (S)-1-(3-amino-2,2-dimethylpropanoyl)-N-(6-(trifluoromethoxy)benzo[d]thiazol-2-yl)pyrrolidine-2-carboxamide], under setting [1], the AUC(0-t) is 2770 ng·h/mL. Further, for the setting “IV, prodrug dose 2.8 mg/Kg”, the clearance is 10.7 mL/min/kg, the Vd is 5.11 L/kg and the half-life is 6.2 h.

For the compound `CC(C)NCC(=O)N(C)CC(=O)Nc1nc2ccc(OC(F)(F)F)cc2s1` [Example 124, 2-(isopropylamino)-N-methyl-N-(2-oxo-2-((6-(trifluoromethoxy)benzo[d]thiazol-2-yl)amino)ethyl)acetamide], the AUC(0-t) under setting [1] stood at 580 ng·h/mL. Besides, under “IV, prodrug dose 2.8 mg/Kg”, the clearance was 81.2 mL/min/kg, the Vd is 2.67 L/kg and the half-life was 0.63 h.

In general, Cmax refers to the maximum level reached in the sampled fluid or tissue. The Tmax is the time at which the peak concentration occurs. As to `CN(CC(=O)Nc1nc2ccc(OC(F)(F)F)cc2s1)C(=O)CNC1CCNCC1` [Example 216, N-Bethyl-2-[(piperidin-4-yl)amino]-N-({[6-(trifluoromethoxy)-1,3-benzothiazol-2-yl]carbamoyl}methyl)acetamide], the AUC(0-t) under setting [1] is 1910 ng·h/mL. For the setting “IV, prodrug dose 2.8 mg/Kg”, the clearance was 23 mL/min/kg, the Vd was 2.53 L/kg and the half-life was 3.98 h. Under “PO 5 mg/kg”, the Cmax turned out to be 2.96 ng/mL and the Tmax stood at 2.17 h. Moreover, the AUC(0-t) (PO 5 mg/kg, read-out: Prodrug AUClast (Mean)) is 16.6 ng·h/mL.

In the case of `CCNCC(=O)N(C)CC(=O)Nc1nc2ccc(OC(F)(F)F)cc2s1` [Example 123, 2-(ethylamino)-N-methyl-N-(2-oxo-2-((6-(trifluoromethoxy)benzo[d]thiazol-2-yl)amino)ethyl)acetamide], under setting [1], the AUC(0-t) came to 787 ng·h/mL. For the setting “IV, prodrug dose 2.8 mg/Kg”, the clearance is 59 mL/min/kg, the Vd was found to be 2.04 L/kg and the half-life was 0.68 h.

Regarding `CN(CC(=O)Nc1nc2ccc(OC(F)(F)F)cc2s1)C(=O)C1(CN)CCCCC1` [Example 121, 1-(aminomethyl)-N-methyl-N-(2-oxo-2-((6-(trifluoromethoxy)benzo[d]thiazol-2-yl)amino)ethyl)cyclohexane-1-carboxamide], the AUC(0-t) under setting [1] is 1290 ng·h/mL. Besides, where the note is “IV, prodrug dose 2.8 mg/Kg”, the clearance is 36.3 mL/min/kg, the Vd turned out to be 6.15 L/kg and the half-life was 4.83 h.

In the case of `CN(CC(=O)Nc1nc2ccc(OC(F)(F)F)cc2s1)C(=O)C1(CN)CC1` [Example 119, 1-(aminomethyl)-N-methyl-N-(2-oxo-2-((6-(trifluoromethoxy)benzo[d]thiazol-2-yl)amino)ethyl)cyclopropane-1-carboxamide], the AUC(0-t) under setting [1] worked out at 1720 ng·h/mL. For the setting “IV, prodrug dose 2.8 mg/Kg”, the clearance was 27.2 mL/min/kg, the Vd was 4.7 L/kg and the half-life is 9.3 h.

With `CN(CC(=O)Nc1nc2ccc(OC(F)(F)F)cc2s1)C(=O)C(C)(C)CN` [Example 118, 3-Amino-N,2,2-trimethyl-N-(2-oxo-2-((6-(trifluoromethoxy)benzo[d]thiazol-2-yl)amino)ethyl)propanamide], the AUC(0-t) under setting [1] was 2480 ng·h/mL. For the same compound, where the note is “IV, prodrug dose 2.8 mg/Kg”, the clearance was 18.8 mL/min/kg, the Vd is 3.35 L/kg and the half-life is 10.4 h.

Turning to `CC(C)NCC(=O)NC(C)(C)C(=O)Nc1nc2ccc(OC(F)(F)F)cc2s1` [Example 113, 2-(2-(isopropylamino)acetamido)-2-methyl-N-(6-(trifluoromethoxy)benzo[d]thiazol-2-yl)propanamide], under setting [1], the AUC(0-t) came to 2760 ng·h/mL. Also, where the note is “IV, prodrug dose 2.8 mg/Kg”, the clearance was 11.5 mL/min/kg, the Vd is 4.88 L/kg and the half-life is 5.45 h.

Regarding `CN(CC(=O)Nc1nc2ccc(OC(F)(F)F)cc2s1)C(=O)CNC1COC1` [Example 234, N-Methyl-2-[(oxetan-3-yl)amino]-N-({[6-(trifluoromethoxy)-1,3-benzothiazol-2-yl]carbamoyl}methyl)acetamide], the AUC(0-t) under setting [1] is 3240 ng·h/mL. Besides, for the setting “IV, prodrug dose 2.8 mg/Kg”, the clearance was 14.2 mL/min/kg, the Vd is 1.1 L/kg and the half-life is 1.5 h.

Consider `CCNCC(=O)N1CCC[C@@H]1C(=O)Nc1nc2ccc(OC(F)(F)F)cc2s1` [Example 52, (R)-1-N-ethylglycinyl-N-(6-(trifluoromethoxy)benzo [d]thiazol-2-yl) pyrrolidine-2-carboxamide], for which, under setting [1], the AUC(0-t) is 3620 ng·h/mL. Moreover, under “IV, prodrug dose 2.8 mg/Kg”, the clearance was 9 mL/min/kg, the Vd amounted to 3.55 L/kg and the half-life was 4.75 h.

Turning to `NCC1(C(=O)N2CCC[C@@H]2C(=O)Nc2nc3ccc(OC(F)(F)F)cc3s2)CCCCC1` [Example 173, (R)-1-(1-(aminomethyl)cyclohexane-1-carbonyl)-N-(6-(trifluoromethoxy)benzo[d]thiazol-2-yl)pyrrolidine-2-carboxamide], the AUC(0-t) under setting [1] was 1440 ng·h/mL. Under “IV, prodrug dose 2.8 mg/Kg”, the clearance was 22.3 mL/min/kg, the Vd is 9.66 L/kg and the half-life was 6.7 h.

Turning to `CNCC(=O)N(C)CC(=O)Nc1nc2ccc(OC(F)(F)F)cc2s1` [Example 122, N-methyl-2-(methylamino)-N-(2-oxo-2-((6-(trifluoromethoxy)benzo[d]thiazol-2-yl)amino)ethyl)acetamide], under setting [1], the AUC(0-t) turned out to be 219 ng·h/mL. For the same compound, where the note is “IV, prodrug dose 2.8 mg/Kg”, the clearance was 66.3 mL/min/kg, the Vd turned out to be 0.861 L/kg and the half-life is 0.28 h.

As to `CN(CC(=O)Nc1nc2ccc(OC(F)(F)F)cc2s1)C(=O)C1(CN)CCCC1` [Example 120, 1-(aminomethyl)-N-methyl-N-(2-oxo-2-((6-(trifluoromethoxy)benzo[d]thiazol-2-yl)amino)ethyl)cyclopentane-1-carboxamide], the AUC(0-t) under setting [1] worked out at 2460 ng·h/mL. Moreover, where the note is “IV, prodrug dose 2.8 mg/Kg”, the clearance was 19 mL/min/kg, the Vd worked out at 3.63 L/kg and the half-life is 8.66 h.

For the compound `CN(CC(=O)Nc1nc2ccc(OC(F)(F)F)cc2s1)C(=O)CNC1CNC1` [Example 212, 2-[(Azetidin-3-yl)amino]-N-methyl-N-({[6-(trifluoromethoxy)-1,3-benzothiazol-2-yl]carbamoyl}methyl)acetamide], for the setting “IV, prodrug dose 1.4 mg/Kg, read-out: Compound of the disclosure AUClast”, the AUC(0-t) amounted to 218 ng·h/mL. Also, under “IV, prodrug dose 1.4 mg/Kg”, the clearance was 104 mL/min/kg, the Vd amounted to 6.21 L/kg and the half-life was 2.43 h.

As for `NCC(=O)NC1(C(=O)Nc2nc3ccc(OC(F)(F)F)cc3s2)CCC1` [Example 82, 1-(2-aminoacetamido)-N-(6-(trifluoromethoxy)benzo[d]thiazol-2-yl)cyclobutane-1-carboxamide], the AUC(0-t) under setting [1] came out at 663 ng·h/mL. Moreover, under “IV, prodrug dose 2.8 mg/Kg”, the clearance is 71.3 mL/min/kg, the Vd was found to be 4.14 L/kg and the half-life was 1.03 h.

On to `CNCC(=O)NC1(C(=O)Nc2nc3ccc(OC(F)(F)F)cc3s2)CCC1` [Example 83, 1-(2-(methylamino)acetamido)-N-(6-(trifluoromethoxy)benzo[d]thiazol-2-yl)cyclobutane-1-carboxamide], for which, for the setting “IV, prodrug dose 1.8 mg/Kg, read-out: Compound of the disclosure AUClast”, the AUC(0-t) was found to be 1720 ng·h/mL. Besides, for the setting “IV, prodrug dose 1.8 mg/Kg”, the clearance was 11.3 mL/min/kg, the Vd was 5.06 L/kg and the half-life is 5.56 h.
